# Assay results reported in patent US11104630B2, “Synthesis of mono-chlorinated acetophenone” (SIEGFRIED AG, priority 2017, dated 2021).
# Assay: Solubility of the starting material in the solvent
# Format: physicochemical
# Details: solvent MTBE, 20° C., until clear solution
# Experimental: Solubility of the Starting Material in the Solvent
# To 1 g of HAP is added 5 ml of solvent. The mixture is stirred in a water bath at 20° C. The solvent is further slowly added under stirring until a clear solution appears.
# The amount of used solvent is noted.
compound,measurement,value
"CC(=O)c1cccc(O)c1 [HAP, 3-hydroxy-acetophenon]",Solvent in ml per g HAP,9 ml per g HAP
